The source of these data is patent US20080269161A1, “Compositions and Methods Relating to Mitochondrial Hyperpolarization in Neurological Disease” (priority 2005, published 2008).

For this assay, the system named is CA1 pyramidal neurons in hippocampal slices. Also on record: species or system rodent. As for the experimental part:
CA1 pyramidal neurons were exposed to 1 μM cPAF or vehicle for 30-60min and simultaneously imaged and recorded by whole-cell patch clamp before and after delivery of a high-frequency stimulus (HFS: three 1s, 100 Hz trains, every 20 s) applied to Schaffer collateral axons via a bipolar stimulating electrode planted in the stratum radiatum. (A) Dendrite beading in a cPAF-exposed cell 45min after HFS, with no disruption of dendrite or spine morphology in control cells. […] (C) Excitatory synaptic transmission between Shaffer collateral axons and CA1 pyramidal neurons is strongly potentiated following HFS in control slices. […] (EPSP traces at baseline and 40 min from representative control cell and cPAF-treated beaded cell are at right.) […]
Explant hippocampal slices are exposed to HIV-1 neurotoxins±agents that reverse mitochondrial hyperpolarization. Beading and LTP are then be measured:
Hippocampal slice preparation: Brains from anesthetized P14-28 rodents are rapidly removed and cooled in sucrose based artificial cerebrospinal fluid (ACSF) containing in mM: 110 sucrose, 60 NaCl, 3 KCl, 1.25 NaH2PO4, 28 NaHCO3, 10 D-glucose, 0.5 CaCl2, 7 MgSO4, 0.6 ascorbate. The brains are blocked and fixed to a specimen stage with cyanoacrylate. Coronal slices (250-400 μm in thickness) are cut with a vibroslicer (World Precision Instruments, Fla., USA) equipped with a Peltier cooling system. The middle four to six slices of each hippocampus (with the entorhinal cortex removed) are placed into a holding chamber prior to use.
Measuring dendritic beading and postsynaptic potentials in single CA1 cells in hippocampal slices: Dendritic arbors of individual CA1 pyramidal cells are imaged while simultaneously recording excitatory postsynaptic potentials in the same cell by patch clamp recordings in whole-cell configuration. Recording pipettes ([…] resistance) are pulled from 1.5 mm borosilicate glass using a horizontal Flaming/Brown micropipette puller (Sutter Instrument Co, Calif.), fire-polished, and filled with intracellular recording solution (in mM: KCl 20, potassium gluconate 130, EGTA 0.5, HEPES 10, MgSO4 2, ATP 2.5, GTP 0.5, pH 7.3). In order to visualize dendrites of the recorded cell, Alexa 568 hydrazide (30 μM) is included in the recording pipette and is injected by small negative current pulses for 15-20 min prior to recording in order to fill the dendritic arbor. Hippocampal slices are bathed in artificial CSF (containing, in mM: NaCl 125, KCl 2.5, NaH2PO4 1.25, NaHCO3 25, CaCl2 2, MgCl2 1, D-glucose 25, oxygenated and buffered with 5% CO2). Membrane potentials of CA1 pyramidal cells are recorded in current clamp mode, and postsynaptic potentials are evoked by test pulses of constant-current stimulation applied via a bipolar stimulating electrode placed 50-200 μm away in the stratum radiatum. Bicuculline (10 μM) is included in the bath to isolate excitatory postsynaptic potentials. After at least 10 min of consistent baseline recording, a high-frequency LTP induction stimulus (HFS, consisting of four 1 s, 100 Hz trains delivered every 15 s) is applied. EPSPs are recorded for 60 min following HFS. At the same time, dendrites are imaged at 40× magnification by fluorescence microscopy, using a shutter to limit fluorescent light exposure and prevent phototoxic injury to the slice. Serial images of dendrites are compared to detect development of focal swellings along dendritic shafts following HFS. Cells are scored as beaded if swellings develop along any of their dendrites.
Field potential recording and induction of LTP in hippocampal slices: Single-cell recordings are complemented by extracellular field potential recordings: while single cell recordings allow correlation of electrophysiologic data with dendritic beading in the same cell, extracellular recordings sample responses from populations of dendrites and are less invasive. […]

Setting [1] is: HIV-1 neurotoxin with vehicle treatment.

“Also recorded” adds a separate entry of the source.

In the case of `CCCCCCCCCCCCCCCCOC[C@H](COP(=O)([O-])OCC[N+](C)(C)C)OC(=O)NC` [PAF, carbamyl-platelet-activating factor], for the setting “1 μM cPAF, 30-60 min”, the “cells with beading elicited by HFS” value was “half of the cells”; the “potentiation of EPSPs after HFS, cells that did not develop dendrite beading” value was “smaller potentiation”; the “potentiation of EPSPs after HFS, cells whose dendrites did bead” value is recorded as “failure of long-term potentiation; also recorded: not potentiated at all”. Further, under setting [1], the “Beading Prediction” value was “Occurs”, the “LTP Prediction” value was “Failure” and the Δψm result is reported as “Hyperpolarized”.
